Test results from patent US5387419A, “System for controlled release of antiarrhythmic agents” (The University of Michigan, priority 1993, dated 1995).

Key:
[1] = test system: Ventricular tachycardia (VT) induced by rapid ventricular pacing; experiment: In vivo ventricular pacing study: conversion of ventricular tachycardia induced by rapid ventricular pacing; set-up: species or system dog (male mongrel dogs); settings: for Effectiveness in converting ventricular tachycardia: in words, controlled release dosage form, epicardial; for Conversion / Peak % Increase in VT Threshold: mean ± standard error; for Conversion: patches: lidocaine 28% in Tecoflex (N 16), procainamide 30% in Thyomer (7), amiodarone 30% in Thyomer with 10% polyethyleneglycol 200 (3), NiCl2 50% in Thyomer (4); for Peak % Increase in VT Threshold: same patches: lidocaine/Tecoflex, procainamide/Thyomer, amiodarone/Thyomer with polyethyleneglycol, NiCl2/Thyomer
Description: Ventricular tachycardia was induced and maintained by rapid ventricular pacing in an open-chest dog model using male mongrel dogs (10-15 kg). Three sets of bipolar epicardial electrodes were placed at 2 cm distances from the left ventricular apex toward the base of the heart. A Grass Model 8 stimulator (Grass Instruments, delivered continuous electrical stimulation as 2-msec square wave impulses with a 50-msec cycle length via a stimulus isolation unit (Bloom Associates, Reading, Pa.). The stimulus isolation unit also repeatedly monitored the pacing current thresholds. After induction of ventricular tachycardia, a controlled release dosage form of the present invention in the shape of a patch of the drug-loaded polymeric matrix material was placed adjacent to the stimulating electrode. The time required to convert the ventricular tachycardia to sinus rhythm was measured, as well as the time course of the quantitative change for sustaining the induction of ventricular tachycardia. The effects of controlled release were monitored for up to 4 hours after conversion to normal sinus rhythm.
All other dosage forms were fabricated by dissolving the therapeutic agent in dimethylacetamide at a concentration of 100 mg/ml therapeutic agent. This solution was further dissolved in a 10% solution of a Thyomer polyurethane and solvent cast into a 0.2 mm films. […] Controls comprised patches of each polymeric matrix material.

[2] = test system: Ischemia-induced ventricular tachycardia; experiment: In vivo acute ischemia-induced ventricular tachycardia study; set-up: species or system dog; settings: for VT (per/minute): number of VT episodes per minute following epicardial placement: average for N dogs, patches (dose mg/kg/2hr): lidocaine 28% Tecoflex (0.23, N 5), propranolol 30% MPU-5 (0.14, 6), D-sotalol 30% MPU-5 (0.20, 9), verapamil 30% MPU-5 (0.30, 11); for Effectiveness against ischemia-induced ventricular tachycardia: in words, epicardial controlled release
Protocol: Controlled release dosage forms of the present invention have been successful in preventing ischemia-induced ventricular tachycardia in a canine model. Ventricular occlusions of the left anterior descending coronary artery of a dog were produced by exposing and isolating the artery in a dog under anesthesia. A snare with a sliding closure was placed around the artery. Ventricular tachycardia was produced by closing the snare for 10 minutes to shut off the blood supply to left ventricle. The snare was opened for an hour, and then the snare was closed for 10 minutes. This procedure can be repeated up six times and simulates a heart attack. Ventricular tachycardia (VT) was defined as the occurrence of 3 or more sequential ventricular premature beats. The efficacy of various controlled release dosage forms of the present invention were documented by continuous recording of the electrophysiologic data on a Hewlett Packard Physiologic Records, and an 8-channel analogue tape deck (Hewlett Packard, Philadelphia, Pa.).
The data is expressed as the average for the number N of dogs per group. Episodes of VT were paced at one per minutes.

[3] = oral; cited from earlier work
normal cardiac function = experiment: Other studies: effects of transmyocardial lidocaine on normal cardiac function; type: in vivo; settings: lidocaine administered by transmyocardial route

CCN(CC)CCNC(=O)c1ccc(N)cc1 [Procainamide, procainamide]
Effectiveness in converting ventricular tachycardia [1]: effective in converting ventricular tachycardia | Conversion [1]: 4.05 ± 3.15 min | Peak % Increase in VT Threshold [1]: 206.7 ± 172.6%

COc1ccc(CCN(C)CCCC(C#N)(c2ccc(OC)c(OC)c2)C(C)C)cc1OC (stereo not shown) [Verapamil, verapamil]
VT (per/minute): number of VT episodes per minute following epicardial placement [2]: 0.10 ± .03 per/minute | Effectiveness against ischemia-induced ventricular tachycardia [2]: the most effective for arrhythmias due to acute myocardial ischemia

CC(C)NCC(O)COc1cccc2ccccc12 (stereo not shown) [Propranolol, propranolol]
VT (per/minute): number of VT episodes per minute following epicardial placement [2]: 1.22 ± .12 per/minute

CCCCc1oc2ccccc2c1C(=O)c1cc(I)c(OCCN(CC)CC)c(I)c1 [Amiodarone, amiodarone]
Severe side effects, share of patients [3]: over 70% | Peak % Increase in VT Threshold [1]: 36.1 ± 12.7%

CC(C)NC[C@@H](O)c1ccc(NS(C)(=O)=O)cc1 [D-Sotalol, d-sotalol]
VT (per/minute): number of VT episodes per minute following epicardial placement [2]: .046 ± .11 per/minute | Effectiveness against ischemia-induced ventricular tachycardia [2]: the most effective for arrhythmias due to acute myocardial ischemia

[Cl][Ni][Cl] [NiCl2, nickel chloride]
Effectiveness in converting ventricular tachycardia [1]: effective to convert tachycardia to normal sinus rhythm | Conversion [1]: 2.08 ± 1.71 min | Peak % Increase in VT Threshold [1]: 122.6 ± 101.3%

CCN(CC)CC(=O)Nc1c(C)cccc1C [Lidocaine, lidocaine]
VT (per/minute): number of VT episodes per minute following epicardial placement [2]: 0.6 ± 0.2 per/minute | Other effects on normal cardiac function (normal cardiac function): no other significant effects on normal cardiac function | Peak % Increase in VT Threshold [1]: 367.7 ± 183.1%
